These results are taken from patent US20040053842A1, “Methods of treatment with CETP inhibitors and antihypertensive agents” (Pfizer Inc., priority 2002, published 2004).

Each structure is given as a SMILES string.

A short description of the series: aqueous solubility. To be noted: aqueous environments. In kind it is physicochemical.

The compound `CCOC(=O)N1c2ccc(C(F)(F)F)cc2[C@@H](N(Cc2cc(C(F)(F)F)cc(C(F)(F)F)c2)C(=O)OC)C[C@H]1CC` [torceptrapib, [2R,4S]-4-[(3,5-bis-trifluoromethyl-benzyl)-methoxycarbonyl-amino]-2-ethyl-6-trifluoromethyl-3,4-dihydro-2H-quinoline-1-carboxylic acid ethyl ester] gave a solubility of less than 0.04 µg/mL.
